ChEMBL document CHEMBL1201862, “PubChem BioAssay data set” (2004)
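Dose response: 5 concentrations. Exposure: 48 h. Format: 96-well plates. Endpoint: linear interpolation; highest concentration if not reached. The concentration for 50% growth inhibition is given as GI50.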 Calls of active or inactive are those of the source. Rule as the data show it: active = GI50 up to about 1.1 µM and inactive = higher.

Columns and labels:
Assay in all cases: growth of human tumour cells (NCI), 48 h
[1] = test system: ACHN
[2] = test system: SF-539
[3] = test system: Malme-3M
[4] = test system: EKVX
[5] = test system: TK-10
[6] = test system: CCRF-CEM
[7] = test system: K562
[8] = test system: HCT-116
[9] = test system: NCI-H460
[10] = test system: OVCAR-3
[11] = test system: SF-268
[12] = test system: COLO 205
[13] = test system: NCI-H23
[14] = test system: HCC 2998
[15] = test system: A549
[16] = test system: HCT-15
[17] = test system: HOP-92
[18] = test system: CAKI-1
[19] = test system: SK-MEL-5
[20] = test system: A498

Row | Compound | GI50 [1] | GI50 [2] | GI50 [3] | GI50 [4] | GI50 [5] | GI50 [6] | GI50 [7] | GI50 [8] | GI50 [9] | GI50 [10] | GI50 [11] | GI50 [12] | GI50 [13] | GI50 [14] | GI50 [15] | GI50 [16] [µM] | GI50 [17] | GI50 [18] | GI50 [19] | GI50 [20]
1 | O=C1NC2C(CCO)CC=C[C@H]2c2cc3c(cc21)OCO3 (stereo not given in full) | > 100 µM (inactive) | > 100 µM (inactive) | > 100 µM (inactive) | > 100 µM (inactive) | > 100 µM (inactive) | > 100 µM (inactive) | > 100 µM (inactive) | > 100 µM (inactive) | > 100 µM (inactive) | > 100 µM (inactive) | > 100 µM (inactive) | > 100 µM (inactive) | > 100 µM (inactive) | > 10 µM (inactive) | > 100 µM (inactive) | > 100 |  |  |  | 
2 | Clc1ccc(COC(Cn2ccnc2)c2ccc(Cl)cc2Cl)c(Cl)c1 (stereo not given) [MICONAZOLE] | 15 µM (inactive) | 13.8 µM (inactive) | 14.9 µM (inactive) | 14.3 µM (inactive) | 13.7 µM (inactive) | 8.09 µM (inactive) | 3.66 µM (inactive) | 5.12 µM (inactive) | 17.5 µM (inactive) | 12.2 µM (inactive) | 11.2 µM (inactive) |  | 11 µM (inactive) | 17.1 µM (inactive) | 9.64 µM (inactive) | 10.8 | 11.4 µM (inactive) | 13.6 µM (inactive) |  | 
3 | O=C1NNC(=O)c2ccccc2SSc2ccccc2C(=O)NNC(=O)c2ccccc2SSc2ccccc21 | 14 µM (inactive) | 17.3 µM (inactive) | 15.6 µM (inactive) | 18.1 µM (inactive) | 36.9 µM (inactive) | 1.26 µM (inactive) | 12.9 µM (inactive) | 7.76 µM (inactive) | 5.97 µM (inactive) | 16.9 µM (inactive) | 5.31 µM (inactive) | 17.2 µM (inactive) | 9.33 µM (inactive) | > 100 µM (inactive) | 19.5 µM (inactive) | 8.99 | > 50 µM (inactive) | 13.2 µM (inactive) | 26.9 µM (inactive) | 
4 | CCOC(=O)c1cnc2c(ccc3ncccc32)c1OCC | > 100 µM (inactive) | > 100 µM (inactive) | > 100 µM (inactive) | 84.3 µM (inactive) | 60.5 µM (inactive) | 59.6 µM (inactive) | > 100 µM (inactive) | > 100 µM (inactive) | > 100 µM (inactive) | > 100 µM (inactive) | > 100 µM (inactive) | > 100 µM (inactive) | > 100 µM (inactive) | > 100 µM (inactive) | > 100 µM (inactive) | > 100 |  |  | > 100 µM (inactive) | > 100 µM (inactive)
5 | CC1(C)COC(c2ccc(C(=O)c3ccc(Cl)cc3)cc2)=N1 | > 100 µM (inactive) | > 100 µM (inactive) | 42.5 µM (inactive) | 44.6 µM (inactive) |  | > 100 µM (inactive) | 28.6 µM (inactive) | > 100 µM (inactive) | > 100 µM (inactive) | > 100 µM (inactive) | > 100 µM (inactive) | > 100 µM (inactive) | 6.95 µM (inactive) | > 100 µM (inactive) | 83 µM (inactive) | > 100 | 85.1 µM (inactive) | > 100 µM (inactive) | 7.23 µM (inactive) | 
6 | Cc1cc(=O)n2c(cc3cccccc32)n1 | > 100 µM (inactive) | > 100 µM (inactive) |  | > 100 µM (inactive) | > 100 µM (inactive) | > 100 µM (inactive) | > 100 µM (inactive) |  | > 100 µM (inactive) | > 100 µM (inactive) | > 100 µM (inactive) | > 100 µM (inactive) | > 100 µM (inactive) | > 100 µM (inactive) | > 100 µM (inactive) | > 100 |  | > 100 µM (inactive) |  | > 100 µM (inactive)
7 | O=[N+]([O-])c1ccc(C(c2c[nH]c3ccccc23)c2c[nH]c3ccccc23)cc1 | 8.05 µM (inactive) | 16.4 µM (inactive) | 15.5 µM (inactive) | 19.4 µM (inactive) | 12.7 µM (inactive) | 0.309 µM (active) | 6.61 µM (inactive) |  | 3.57 µM (inactive) | 1.94 µM (inactive) | 8.85 µM (inactive) | 8.13 µM (inactive) | 7.1 µM (inactive) | 13.2 µM (inactive) | 6.82 µM (inactive) | 11 |  |  | 5.97 µM (inactive) | 16.1 µM (inactive)
8 | [N-]=[N+]=Nc1ccccc1Oc1ccccc1 | > 100 µM (inactive) | > 100 µM (inactive) |  | > 100 µM (inactive) | > 100 µM (inactive) |  | > 100 µM (inactive) | > 100 µM (inactive) | > 100 µM (inactive) | > 100 µM (inactive) | > 100 µM (inactive) | > 100 µM (inactive) | > 100 µM (inactive) | > 100 µM (inactive) | > 100 µM (inactive) | > 100 |  | > 100 µM (inactive) | > 100 µM (inactive) | > 100 µM (inactive)
9 | COc1cc2c(cc1OCCCCCOc1cc3c(cc1OC)C(=O)N1CCC[C@H]1CN3)N=C[C@@H]1CCCN1C2=O | 4.03 µM (inactive) | 3.18 µM (inactive) | 5.93 µM (inactive) | 39.6 µM (inactive) | 19.5 µM (inactive) | 0.233 µM (active) | 3.49 µM (inactive) | 4.85 µM (inactive) | 3.77 µM (inactive) | 12.6 µM (inactive) | 3.57 µM (inactive) | 4.37 µM (inactive) | 4.8 µM (inactive) |  | 5.46 µM (inactive) | 13.7 | 17.2 µM (inactive) | 9.48 µM (inactive) | 2.79 µM (inactive) | 
10 | Nc1c(-c2nc3ccccc3s2)c2ccc([N+](=O)[O-])cc2c(=O)n1-c1cccc(C(=O)O)c1 | 33 µM (inactive) |  |  |  | 19 µM (inactive) | 22.8 µM (inactive) |  | 21.2 µM (inactive) | 27 µM (inactive) |  | 35.5 µM (inactive) | 63.5 µM (inactive) | 25.4 µM (inactive) | 62.5 µM (inactive) | 34.9 µM (inactive) | 27.4 | 24.2 µM (inactive) | 27.5 µM (inactive) | 26.7 µM (inactive) | 
11 | CN(C)c1ccc(C(C#N)NNC(=O)Cc2ccccc2)cc1 (stereo not given) | > 100 µM (inactive) | > 100 µM (inactive) | > 100 µM (inactive) |  | > 100 µM (inactive) | > 100 µM (inactive) | > 100 µM (inactive) | > 100 µM (inactive) | > 100 µM (inactive) | > 100 µM (inactive) | > 100 µM (inactive) | > 100 µM (inactive) | > 100 µM (inactive) |  | > 100 µM (inactive) | > 100 | > 100 µM (inactive) | > 100 µM (inactive) | > 100 µM (inactive) | 
12 | CCOC(=O)c1ccc(NC(=O)SCCC(=O)O)cc1 | 51.1 µM (inactive) | > 100 µM (inactive) |  | 0.841 µM (active) | > 100 µM (inactive) | > 100 µM (inactive) | 63.1 µM (inactive) | > 100 µM (inactive) | > 100 µM (inactive) | > 100 µM (inactive) | 0.426 µM (active) | > 100 µM (inactive) | > 100 µM (inactive) | > 100 µM (inactive) | > 100 µM (inactive) | > 100 |  |  |  | > 100 µM (inactive)
13 | Cc1cc([N+](=O)[O-])c(C)c2c1[nH]c1ccc(Cl)cc12 | > 100 µM (inactive) | > 100 µM (inactive) | > 100 µM (inactive) | > 100 µM (inactive) | 84.7 µM (inactive) | 23.2 µM (inactive) | 26.4 µM (inactive) | > 100 µM (inactive) | > 100 µM (inactive) | 38.9 µM (inactive) | > 100 µM (inactive) | 71 µM (inactive) | > 100 µM (inactive) | > 100 µM (inactive) | > 100 µM (inactive) | 96.2 |  | > 100 µM (inactive) | > 100 µM (inactive) | 
14 | CC(C)(C)C1CCC2c3c([nH]c4ncccc34)C3C(=O)N(c4ccccc4)C(=O)C3C2C1 (stereo not given) | > 100 µM (inactive) | > 100 µM (inactive) | > 100 µM (inactive) | > 100 µM (inactive) | > 100 µM (inactive) | 49.7 µM (inactive) | > 100 µM (inactive) | > 100 µM (inactive) | > 100 µM (inactive) | > 100 µM (inactive) | > 100 µM (inactive) | > 100 µM (inactive) | > 100 µM (inactive) | > 100 µM (inactive) | > 100 µM (inactive) | > 100 | > 100 µM (inactive) | > 100 µM (inactive) | > 100 µM (inactive) | 
15 | O=C(NCCCN1CCN(CCCNC(=O)Nc2cc(Cl)ccc2Cl)CC1)Nc1cc(Cl)ccc1Cl | > 100 µM (inactive) | 44.5 µM (inactive) | 24.3 µM (inactive) |  | > 100 µM (inactive) | > 100 µM (inactive) | 35.5 µM (inactive) | 79.3 µM (inactive) | > 100 µM (inactive) | > 100 µM (inactive) | 87.3 µM (inactive) | 45.5 µM (inactive) | 87.7 µM (inactive) |  | > 100 µM (inactive) | 65.3 | 50.6 µM (inactive) | > 100 µM (inactive) | 39.7 µM (inactive) | 
16 | CC[N+](CC)(CC)Cc1cn(S(=O)(=O)c2ccccc2)c2ccccc12 | > 100 µM (inactive) | > 100 µM (inactive) | > 100 µM (inactive) |  | > 100 µM (inactive) | > 100 µM (inactive) | > 100 µM (inactive) | > 100 µM (inactive) | > 100 µM (inactive) | > 100 µM (inactive) | > 100 µM (inactive) | > 100 µM (inactive) | > 100 µM (inactive) | > 100 µM (inactive) | > 100 µM (inactive) | > 100 | > 100 µM (inactive) | > 100 µM (inactive) | > 100 µM (inactive) | 
